In US4845121A, “Aci-reductone compounds belonging to the 6,7-disubstituted-3,4-dihydro benzopyan-2H-one class having antiaggregatory properties” (The Ohio State University Research Foundation, priority 1986, dated 1989):
Entries after “also recorded” stand apart in the source; their conditions may differ.

What was measured:
[1] = test system: hyper-aggregatory responses to inducers of the prostaglandin-dependent pathway; conditions: hyperlipidemic patients; Vargaftig et al. (1981); cited from earlier work
[2] = test system: human platelets (collagen-induced serotonin secretion); conditions: Witiak et al., J. Med Chem. 25: 90 (1982); cited from earlier work
[3] = test system: human platelets (collagen-induced aggregation); conditions: literature; cited from earlier work
[4] = test system: human platelets (arachidonic acid-induced serotonin secretion); experiment: Arachidonic acid-induced [14C]-serotonin secretion; type: cell-based; conditions: for IC50: Homo sapiens, Platelet, inhibitor 1 min before AA (0.2-1 mM), mean ± S.E.M., n = 3-9 donors
Protocol: (§1) The antiaggregatory action of the compounds of the present invention was determined using the following procedure: ADP and AA were obtained from Sigma Chemical Co., (St. Louis, MO). [^14 C]-Serotonin (57 mCi/mmol) and [^3 H]-AA (210 Ci/mmol) were supplied by Amersham (Arlington Heights, IL). U46619 (15S-hydroxy-11α,9α-epoxymethano-prosta-5z,13E-dienoic acid) was purchased from Upjohn Diagnostics (Kalamazoo, MI). Blood was collected from normal human volunteers who reported to be free of medication for at least 10 days prior to blood collection. Washed platelets were prepared and suspended in a modified Tyrode's solution, pH 7.4 as described in Navran, S. S., et al., Thromb. […] The platelet count was adjusted to 3×10^8 /ml for aggregation, secretion and biochemical studies.
(§2) Inhibitors were added one minute prior to induction of platelet activation. Secretion of the contests of platelet dense granules was measured by monitoring the release of radioactivity from platelets prelabeled with [^14 C]-serotonin. […] To study the release of AA from platelet phospholipids, washed platelets were incubated with [^3 H]-AA (3.6 mCi/10^9 platelets) for two hours at room temperature prior to the final centrifugation and resuspension of the washing procedure. Released [^3 H]-AA was quantified from supernatants of stimulated platelet samples in a manner identical to the determination of serotonin secretion.

[5] = test system: human platelets (U46619, thromboxane A2 agonist-induced aggregation); experiment: U46619-induced human platelet aggregation (turbidometric, + ASA); type: cell-based; conditions: for IC50: Homo sapiens, Platelet, inhibitor 1 min before U46619 (0.3 uM), aspirin 1 mM added, mean ± S.E.M., n = 3-9 donors
Protocol: as §1, §2

[6] = test system: human platelets (ADP-induced aggregation); experiment: ADP-induced human platelet aggregation (turbidometric, secondary aggregation); type: cell-based; conditions: for rank order of potency, aggregation and serotonin secretory responses to ADP and AA: aggregation and serotonin secretion together; for IC50: Homo sapiens, Platelet, inhibitor 1 min before ADP (1-5 uM), secondary aggregation only, mean ± S.E.M., n = 3-9 donors; for fold more potent than clofibric acid as inhibitor of ADP-induced platelet activation: versus clofibric acid 1
Protocol: as §1, §2

[7] = test system: human platelets (U46619-induced serotonin secretion); experiment: U46619-induced [14C]-serotonin secretion (+ ASA); type: cell-based; conditions: for IC50: Homo sapiens, Platelet, inhibitor 1 min before U46619 (0.3 uM), aspirin 1 mM added, mean ± S.E.M., n = 3-9 donors; for fold more potent than clofibric acid as inhibitor of U46619-evoked serotonin secretion: versus clofibric acid 1
Protocol: as §1, §2

[8] = test system: human platelets (ADP-induced serotonin secretion); experiment: ADP-induced [14C]-serotonin secretion; type: cell-based; conditions: Platelet, inhibitor 1 min before ADP (1-5 uM), mean ± S.E.M., n = 3-9 donors
Protocol: as §1
Inhibitors were added one minute prior to induction of platelet activation. Secretion of the contests of platelet dense granules was measured by monitoring the release of radioactivity from platelets prelabeled with [^14 C]-serotonin. […] Released [^3 H]-AA was quantified from supernatants of stimulated platelet samples in a manner identical to the determination of serotonin secretion.

[9] = test system: human platelets (arachidonic acid-induced aggregation); experiment: Arachidonic acid-induced human platelet aggregation (turbidometric); type: cell-based; conditions: for IC50: Homo sapiens, Platelet, inhibitor 1 min before AA (0.2-1 mM), mean ± S.E.M., n = 3-9 donors; for fold more potent inhibitor of AA-induced aggregation: implied versus clofibric acid; for antiaggregatory potency relative to clofibric acid (in words): prostaglandin-dependent pathway of platelet activation
Protocol: as §1, §2

[10] = test system: human platelets (thrombin-induced [3H]-AA release); experiment: Thrombin-induced [3H]-arachidonic acid release; type: cell-based; conditions: for IC50: Homo sapiens, Platelet, inhibitor 1 min before thrombin (0.5 U/ml), terminated at 4 min, 3-5 donors; for inhibition of AA release (in words): thrombin-induced AA release / release from platelet membrane phospholipids
Protocol: (§3) The antiaggregatory action of the compounds of the present invention was determined using the following procedure: ADP and AA were obtained from Sigma Chemical Co., (St. Louis, MO). [^14 C]-Serotonin (57 mCi/mmol) and [^3 H]-AA (210 Ci/mmol) were supplied by Amersham (Arlington Heights, IL). U46619 (15S-hydroxy-11α,9α-epoxymethano-prosta-5z,13E-dienoic acid) was purchased from Upjohn Diagnostics (Kalamazoo, MI). Blood was collected from normal human volunteers who reported to be free of medication for at least 10 days prior to blood collection. Washed platelets were prepared and suspended in a modified Tyrode's solution, pH 7.4 as described in Navran, S. S., et al., Thromb. Res., 33: 449-510 (1984). The platelet count was adjusted to 3×10^8 /ml for aggregation, secretion and biochemical studies.
Platelet aggregation studies were performed according to the turbidometric method of Born, as described in Nature, 194: 927-929 (1962), in a Payton Model 600 dual channel aggregometer interfaced to an Apple microcomputer for acquistion, quantitation, presentation, and management of platelet aggregation data, as described in Huzoor-Akbar, et al., 32 Thromb. Res., 335-341 (1983). Inhibitors were added one minute prior to induction of platelet activation. Secretion of the contests of platelet dense granules was measured by monitoring the release of radioactivity from platelets prelabeled with [^14 C]-serotonin. Malondialdehyde formation induced by AA was determined as described in Huzoor-Akar et al., Biochem Pharmacol., 30: 2013-2020 (1981). To study the release of AA from platelet phospholipids, washed platelets were incubated with [^3 H]-AA (3.6 mCi/10^9 platelets) for two hours at room temperature prior to the final centrifugation and resuspension of the washing procedure. Released [^3 H]-AA was quantified from supernatants of stimulated platelet samples in a manner identical to the determination of serotonin secretion.
The reactions were terminated at 4 minutes and [^3 H]-AA was sampled from platelet supernatants and analyzed as described herein. Data are averages ± S.E.M. from 3-5 donors.

[11] = test system: human platelets (AA-induced MDA formation); experiment: AA-induced malondialdehyde (MDA) formation; type: cell-based; conditions: Platelet, mean+S.E., N=3-5
Protocol: as §3, with “The platelet count was adjusted to 3×10^8 /ml for aggregation, secretion and biochemical studies.” left out
Platelet aggregation studies were performed according to the turbidometric method of Born, as described in Nature, 194: 927-929 (1962), in a Payton Model 600 dual channel aggregometer interfaced to an Apple microcomputer for acquistion, quantitation, presentation, and management of platelet aggregation data, as described in Huzoor-Akbar, et al., 32 Thromb. […] Secretion of the contests of platelet dense granules was measured by monitoring the release of radioactivity from platelets prelabeled with [^14 C]-serotonin. Malondialdehyde formation induced by AA was determined as described in Huzoor-Akar et al., Biochem Pharmacol., 30: 2013-2020 (1981). […]

| SMILES | rank order of inhibitory potency, AA-induced serotonin secretion [4] | IC50 [4] | inhibition of U46619-induced aggregation/responses (in words) [5] | IC50 [5] | inhibition of (secondary wave of) ADP-induced aggregation (in words) [6] | rank order of potency, aggregation and serotonin secretory responses to ADP and AA [6] | IC50 [6] | fold more potent than clofibric acid as inhibitor of ADP-induced platelet activation [6] | rank order of inhibitory potency against U46619-induced serotonin secretion [7] | IC50 [7] | fold more potent than clofibric acid as inhibitor of U46619-evoked serotonin secretion [7] | IC50 [8] | inhibition of AA-induced aggregation (in words) [9] | rank order of inhibitory potency, AA-induced aggregation [9] | IC50 [9] | fold more potent inhibitor of AA-induced aggregation [9] | antiaggregatory potency relative to clofibric acid (in words) [9] | rank order of inhibitory potency, thrombin-induced AA release [10] | IC50 [10] | inhibition of AA release (in words) [10] | further results |
| --- | --- | --- | --- | --- | --- | --- | --- | --- | --- | --- | --- | --- | --- | --- | --- | --- | --- | --- | --- | --- | --- |
| CCOC(=O)C(C)(C)Oc1ccc(Cl)cc1 [clofibrate] | – | – | – | – | – | – | – | – | – | – | – | – | – | – | – | – | – | – | – | – | effect of therapy on hyper-aggregatory responses (in words) [1]: reverses the hyper-aggregatory responses to inducers of the prostaglandin-dependent pathway |
| O=C1OC(c2ccc(Cl)cc2)C(O)=C1O (stereo not drawn) [compound 2, 2-hydroxytetronic acid aci-reductone] | – | – | – | – | – | – | – | – | – | – | – | – | – | – | – | – | – | – | – | – | inhibition of collagen-induced secretion of [14C]-serotonin (in words) [2]: in a concentration-dependent manner at equivalent doses; inhibition of collagen-induced human platelet aggregation/activation (in words) [3]: inhibit collagen-inducedhuman platelet aggregation |
| O=c1oc2ccc(Cl)cc2c(O)c1O [compound IX, 6-chloro-3,4-dihydroxy-2H-1-benzopyran-2-one] | IX>X>1 | 814 ± 90 µM | inhibits U46619-induced responses in human platelets; also recorded: concentration-dependent inhibitors of U46619-induced aggregation | 1.5 ± 0.16 mM | potent inhibitor of thrombin-induced AA release and ADP- or AA-induced aggregation; also recorded: concentration-dependent inhibition | benzopyranone analogue>2,3-dihydrobenzofuran analog>clofibric acid | 363 ± 159 µM | about 2 fold | dihydrobenzofuran>benzopyranone>clofibric acid | 2.38 ± 0.394 mM | about 2 fold | 466 ± 90 µM | potent inhibitor of thrombin-induced AA release and ADP- or AA-induced aggregation; also recorded: concentration-dependent inhibition | IX>X>1 | 739 ± 86 µM | approximately 4 fold | more potent antiaggregatory agents than clofibric acid | IX>>X=1; also recorded: IX>1=X | 0.432 mM | blocks AA release from platelet membrane phospholipids; also recorded: potent inhibitor of thrombin-induced AA release | inhibition of AA metabolism (in words) ([9]; inferred from AA-mediated versus U46619 responses): acts as an inhibitor of AA metabolism |
| O=C(O)C1Cc2cc(Cl)ccc2O1 (stereo not drawn) [compound X, 5-chloro-2,3-dihydrobenzofuran-2-carboxylic acid] | IX>X>1 | 1010 ± 142 µM | antagonizes the proaggregatory actions of the thromboxane A2 agonist U46619; also recorded: concentration-dependent inhibitors of U46619-induced aggregation | 1.48 ± 0.277 mM | concentration-dependent inhibition | benzopyranone analogue>2,3-dihydrobenzofuran analog>clofibric acid | 533 ± 71 µM | about 2 fold | dihydrobenzofuran>benzopyranone>clofibric acid | 1.44 ± 0.239 mM | about 2 fold | 419 ± 90 µM | concentration-dependent inhibition | IX>X>1 | 851 ± 85 µM | approximately 4 fold | more potent antiaggregatory agents than clofibric acid | IX>>X=1; also recorded: IX>1=X | 3.87 mM | blocks the release and subsequent metabolism of AA | IC50 [11]: 908 ± 137 µM |
